# Experimental data published in patent publication US10947289B2, “Glyco-modified atrial natriuretic peptide” (priority 2013, dated 2021).
# Like-named read-outs stand apart in the source and are kept apart here.
# Target: T1, human GC-A (Homo sapiens, UniProt P16066)
# T1 construct: expressed in transfected cells; host or cells: CHO cells
# T1 sequence (P16066 33-1061): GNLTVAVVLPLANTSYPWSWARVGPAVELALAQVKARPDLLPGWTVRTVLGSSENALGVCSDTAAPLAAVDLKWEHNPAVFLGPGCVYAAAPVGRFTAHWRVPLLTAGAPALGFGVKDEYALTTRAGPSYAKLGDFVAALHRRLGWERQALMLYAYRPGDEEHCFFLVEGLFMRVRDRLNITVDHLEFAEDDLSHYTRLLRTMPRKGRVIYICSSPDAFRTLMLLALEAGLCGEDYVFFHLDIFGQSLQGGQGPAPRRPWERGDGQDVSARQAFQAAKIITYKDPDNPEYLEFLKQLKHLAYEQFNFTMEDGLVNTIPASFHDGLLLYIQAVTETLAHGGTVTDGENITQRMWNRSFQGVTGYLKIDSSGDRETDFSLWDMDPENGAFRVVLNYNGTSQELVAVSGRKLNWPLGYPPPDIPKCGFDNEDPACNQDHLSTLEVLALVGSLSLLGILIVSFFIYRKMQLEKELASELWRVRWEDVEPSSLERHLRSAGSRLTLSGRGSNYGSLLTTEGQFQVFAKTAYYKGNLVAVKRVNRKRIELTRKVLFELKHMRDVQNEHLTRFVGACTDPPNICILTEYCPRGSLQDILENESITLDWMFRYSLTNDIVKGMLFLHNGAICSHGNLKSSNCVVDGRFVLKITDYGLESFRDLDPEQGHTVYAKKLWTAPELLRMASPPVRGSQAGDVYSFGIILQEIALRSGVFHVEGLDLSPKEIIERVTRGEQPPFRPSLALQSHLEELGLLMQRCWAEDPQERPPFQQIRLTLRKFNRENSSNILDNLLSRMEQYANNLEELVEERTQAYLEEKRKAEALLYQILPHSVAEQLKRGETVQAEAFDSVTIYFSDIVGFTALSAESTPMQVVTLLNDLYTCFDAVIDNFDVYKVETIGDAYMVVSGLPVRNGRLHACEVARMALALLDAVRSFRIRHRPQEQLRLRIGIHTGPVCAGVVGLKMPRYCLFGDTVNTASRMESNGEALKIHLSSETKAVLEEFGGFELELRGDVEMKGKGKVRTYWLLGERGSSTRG
# Test: cGMP elevating activity in CHO/human GC-A cells (Test Example 1)
# Format: cell-based
# Method: The cGMP elevating activity of each modified peptide prepared in Example 2 was measured by the following method:
# CHO/human GC-A cells, which are CHO cells constitutively expressing human GC-A, were suspended at 2×10^5 cells/ml in α-MEM, 10% FBS, and 1% penicillin-streptomycin, inoculated at 20 μl/well (4×10^3 cells/well) onto a 384-well plate (Corning, 3826), and cultured overnight in a CO2 incubator. On the next day, the medium was removed from this plate, and then, 1.6 mM IBMX/KRB buffer was added thereto at 10 μl/well. The mixture was stirred on a plate shaker and then incubated at room temperature for 10 minutes. […] The mixture was stirred on a plate shaker and then incubated for 15 minutes in a CO2 incubator. Thereafter, a lysis buffer (50 mM phosphate buffer, pH 7.0, and 1% Triton X-100) was added thereto at 5 μl/well. The cells were lysed by stirring for 10 minutes on a plate shaker. Subsequently, the cGMP levels in the cell lysates were measured by use of a cGMP kit (manufactured by Cisbio Bioassays). Specifically, to a 384-well plate (Greiner, 784076), 5 μl/well of a diluent attached to the kit, 5 μl/well of the cell lysate, 5 μl/well of cGMP-d2, and 5 μl/well of anti cGMP-Cryptate were added. The mixture was stirred on a plate shaker and then incubated overnight at 4° C. in the dark, followed by the measurement of homogeneous time-resolved fluorescence using RubyStar (manufactured by BMG LABTECH JAPAN Ltd.). The activity value (T/C) of the test substance at each concentration was calculated when the activity value of a well supplemented with only a solvent was defined as 0 and the activity value of a well supplemented with 1 nM ANP was defined as 1.
Molecule,EC50 [nM],"EC50 (CHO/human GC-A cells, concentration at T/C=0.5, 15 minutes incubation, read-out: EC50) [nM]","Emax (maximum T/C in range 0.01-100 nM, solvent only = 0, 1 nM ANP = 1)"
"CC[C@H](C)[C@@H]1NC(=O)[C@H](CCCNC(=N)N)NC(=O)[C@H](CC(=O)O)NC(=O)[C@H](CCSC)NC(=O)[C@H](CCCNC(=N)N)NC(=O)CNC(=O)CNC(=O)[C@H](Cc2ccccc2)NC(=O)[C@@H](NC(=O)[C@H](CO)NC(=O)[C@H](CO)NC(=O)[C@H](CCCNC(=N)N)NC(=O)[C@H](CCCNC(=N)N)NC(=O)[C@H](CC(C)C)NC(=O)[C@H](CO)NC(=O)CCOCCOCCOCCOCCNC(=O)[C@H](CCCCNC(=O)CCSCC(=O)NCCO[C@@H]2O[C@H](CO)[C@@H](O[C@@H]3O[C@H](CO)[C@@H](O[C@@H]4O[C@H](CO[C@H]5O[C@H](CO)[C@@H](O)[C@H](O)[C@@H]5O[C@@H]5O[C@H](CO)[C@@H](O[C@@H]6O[C@H](CO[C@]7(C(=O)O)C[C@H](O)[C@@H](NC(C)=O)[C@H]([C@H](O)[C@H](O)CO)O7)[C@H](O)[C@H](O)[C@H]6O)[C@H](O)[C@H]5NC(C)=O)[C@@H](O)[C@H](O[C@H]5O[C@H](CO)[C@@H](O)[C@H](O)[C@@H]5O[C@@H]5O[C@H](CO)[C@@H](O[C@@H]6O[C@H](CO[C@]7(C(=O)O)C[C@H](O)[C@@H](NC(C)=O)[C@H]([C@H](O)[C@H](O)CO)O7)[C@H](O)[C@H](O)[C@H]6O)[C@H](O)[C@H]5NC(C)=O)[C@@H]4O)[C@H](O)[C@H]3NC(C)=O)[C@H](O)[C@H]2NC(C)=O)NC(=O)CCSCC(=O)NCCO[C@@H]2O[C@H](CO)[C@@H](O[C@@H]3O[C@H](CO)[C@@H](O[C@@H]4O[C@H](CO[C@H]5O[C@H](CO)[C@@H](O)[C@H](O)[C@@H]5O[C@@H]5O[C@H](CO)[C@@H](O[C@@H]6O[C@H](CO[C@]7(C(=O)O)C[C@H](O)[C@@H](NC(C)=O)[C@H]([C@H](O)[C@H](O)CO)O7)[C@H](O)[C@H](O)[C@H]6O)[C@H](O)[C@H]5NC(C)=O)[C@@H](O)[C@H](O[C@H]5O[C@H](CO)[C@@H](O)[C@H](O)[C@@H]5O[C@@H]5O[C@H](CO)[C@@H](O[C@@H]6O[C@H](CO[C@]7(C(=O)O)C[C@H](O)[C@@H](NC(C)=O)[C@H]([C@H](O)[C@H](O)CO)O7)[C@H](O)[C@H](O)[C@H]6O)[C@H](O)[C@H]5NC(C)=O)[C@@H]4O)[C@H](O)[C@H]3NC(C)=O)[C@H](O)[C@H]2NC(C)=O)CSSC[C@@H](C(=O)N[C@@H](CC(N)=O)C(=O)N[C@@H](CO)C(=O)N[C@@H](Cc2ccccc2)C(=O)N[C@@H](CCCNC(=N)N)C(=O)N[C@@H](Cc2ccc(O)cc2)C(=O)O)NC(=O)CNC(=O)[C@H](CC(C)C)NC(=O)CNC(=O)[C@H](CO)NC(=O)[C@H](CCC(N)=O)NC(=O)[C@H](C)NC(=O)CNC1=O [Compound 2-34, SG-thioacetamide-(SG-thioacetamide-)Lys-PEG-(3)-hANP(1-28)]",0.53,,
"CC[C@H](C)[C@@H]1NC(=O)[C@H](CCCNC(=N)N)NC(=O)[C@H](CC(=O)O)NC(=O)[C@H](CCSC)NC(=O)[C@H](CCCNC(=N)N)NC(=O)CNC(=O)CNC(=O)[C@H](Cc2ccccc2)NC(=O)[C@@H](NC(=O)[C@H](CO)NC(=O)[C@H](CO)NC(=O)[C@H](CCCNC(=N)N)NC(=O)[C@H](CCCNC(=N)N)NC(=O)[C@H](CC(C)C)NC(=O)[C@H](CO)NC(=O)CCOCCOCCOCCOCCNC(=O)[C@H](CC(=O)N[C@@H]2O[C@H](CO)[C@@H](O[C@@H]3O[C@H](CO)[C@@H](O[C@@H]4O[C@H](CO[C@H]5O[C@H](CO)[C@@H](O)[C@H](O)[C@@H]5O[C@@H]5O[C@H](CO)[C@@H](O)[C@H](O)[C@H]5NC(C)=O)[C@@H](O)[C@H](O[C@H]5O[C@H](CO)[C@@H](O)[C@H](O)[C@@H]5O[C@@H]5O[C@H](CO)[C@@H](O)[C@H](O)[C@H]5NC(C)=O)[C@@H]4O)[C@H](O)[C@H]3NC(C)=O)[C@H](O)[C@H]2NC(C)=O)NC(=O)CO[C@@H]2O[C@H](CO)[C@@H](O[C@@H]3O[C@H](CO)[C@@H](O[C@@H]4O[C@H](CO[C@H]5O[C@H](CO)[C@@H](O)[C@H](O)[C@@H]5O[C@@H]5O[C@H](CO)[C@@H](O)[C@H](O)[C@H]5NC(C)=O)[C@@H](O)[C@H](O[C@H]5O[C@H](CO)[C@@H](O)[C@H](O)[C@@H]5O[C@@H]5O[C@H](CO)[C@@H](O)[C@H](O)[C@H]5NC(C)=O)[C@@H]4O)[C@H](O)[C@H]3NC(C)=O)[C@H](O)[C@H]2NC(C)=O)CSSC[C@@H](C(=O)N[C@@H](CC(N)=O)C(=O)N[C@@H](CO)C(=O)N[C@@H](Cc2ccccc2)C(=O)N[C@@H](CCCNC(=N)N)C(=O)N[C@@H](Cc2ccc(O)cc2)C(=O)O)NC(=O)CNC(=O)[C@H](CC(C)C)NC(=O)CNC(=O)[C@H](CO)NC(=O)[C@H](CCC(N)=O)NC(=O)[C@H](C)NC(=O)CNC1=O [Compound 2-22, AG(7)-(AG(7)-)Asn-PEG(3)-hANP(1-28)]",0.08,,
"CC[C@H](C)[C@@H]1NC(=O)[C@H](CCCNC(=N)N)NC(=O)[C@H](CC(=O)O)NC(=O)[C@H](CCSC)NC(=O)[C@H](CCCNC(=N)N)NC(=O)CNC(=O)CNC(=O)[C@H](Cc2ccccc2)NC(=O)[C@@H](NC(=O)[C@H](CO)NC(=O)[C@H](CO)NC(=O)[C@H](CCCNC(=N)N)NC(=O)[C@H](CCCNC(=N)N)NC(=O)[C@H](CC(C)C)NC(=O)[C@@H](N)CC(=O)N[C@@H]2O[C@H](CO)[C@@H](O[C@@H]3O[C@H](CO)[C@@H](O[C@@H]4O[C@H](CO[C@H]5O[C@H](CO)[C@@H](O)[C@H](O)[C@@H]5O[C@@H]5O[C@H](CO)[C@@H](O[C@@H]6O[C@H](CO[C@]7(C(=O)O)C[C@H](O)[C@@H](NC(C)=O)[C@H]([C@H](O)[C@H](O)CO)O7)[C@H](O)[C@H](O)[C@H]6O)[C@H](O)[C@H]5NC(C)=O)[C@@H](O)[C@H](O[C@H]5O[C@H](CO)[C@@H](O)[C@H](O)[C@@H]5O[C@@H]5O[C@H](CO)[C@@H](O[C@@H]6O[C@H](CO[C@]7(C(=O)O)C[C@H](O)[C@@H](NC(C)=O)[C@H]([C@H](O)[C@H](O)CO)O7)[C@H](O)[C@H](O)[C@H]6O)[C@H](O)[C@H]5NC(C)=O)[C@@H]4O)[C@H](O)[C@H]3NC(C)=O)[C@H](O)[C@H]2NC(C)=O)CSSC[C@@H](C(=O)N[C@@H](CC(N)=O)C(=O)N[C@@H](CO)C(=O)N[C@@H](Cc2ccccc2)C(=O)N[C@@H](CCCNC(=N)N)C(=O)N[C@@H](Cc2ccc(O)cc2)C(=O)O)NC(=O)CNC(=O)[C@H](CC(C)C)NC(=O)CNC(=O)[C@H](CO)NC(=O)[C@H](CCC(N)=O)NC(=O)[C@H](C)NC(=O)CNC1=O [Compound 2-4, (SG-)Asn-hANP(2-28)]",0.08,,
SG2-(SG2-)Lys-[SG2-(SG2-)-Lys-]Lys-PEG(3)-hANP(1-28) [Compound 2-20],,64,0.59
